Test results published in publication PMC10689081 (BMB Reports, 2023).
“Also recorded” adds a separate entry of the source.

Experiments:
[1] = test system: SARS-CoV-2 Mpro; format: biochemical
[2] = test system: Mpro dimer; parameters: species or system SARS-CoV-2
[3] = Solubility in water; format: physicochemical; details: Supplementary Fig. 4
[4] = Superose-12 10/300, 0.5 ml/min, buffer D pH 7.5, 298 K (Fig. 1B)

For SGFRKMAFPS [N10], the “inhibition of Mpro activity (in words)” value ([1]; N10, 1 μM Mpro, 0-500 μM N10, 10 μM substrate, 298 K) was “also shows inhibitory activity; also recorded: can inhibit the Mpro activity; also recorded: could inhibit the proteolytic activity of Mpro”, the “inhibitory activity of N10 compared with GC376 (in words)” value ([1]; sub-millimolar concentrations (Fig. 2B)) was “weaker than that of GC376” and the “disruption of dimer conformation (conclusion in words)” value [2] was “disrupted the dimer conformation”. For the same sequence, the “shift of Mpro dimer peak on adding N10” value ([2]; Superose-12 10/300, 0.5 ml/min, 50 mM Tris-HCl pH 7.5, 1 M NaCl, 10% Glycerol, 1 mM DTT, 298 K (Fig. 1B)) was “shifted the Mpro dimer peak into a smaller size; also recorded: from dimer to a smaller size, a presumably monomer”, the “height of the delayed shifted peak compared to the original peak” value [2, 4] was “half-size in height” and the “shape of the peak of Mpro with N10” value [2, 4] was “overlapped shape of two peaks of primary and shoulder; also recorded: overlapped uneven two peaks of primary and shoulder”. The solubility in water [3] was “soluble in water”.
